Measurements: patent US6120997A, “Nucleic acid binders having an hydroxyamine motif” (The Scripps Research Institute, priority 1998, dated 2000)

Assays:
AS-wt = assay: SPR binding of aminoglycosides to decoding region A-site model AS-wt; set-up: species or system E. coli; settings: for specificity for AS-wt over negative controls (in words): Example 5, HBS-buffer
Method: The RNA binding properties of 100-800 were analyzed using a surface plasmon resonance based assay that was recently developed in these laboratories. This assay allows the determination of both affinity and specificity of small molecule-RNA interactions. For the analysis, the compounds were injected over a matrix containing RNA that was immobilized through a biotin tag and the equilibrium binding values were recorded at various concentrations.
Non-linear curve fitting was then used to determine the values of the dissociation constants (KD). The specificity of binding, i.e. the ability to discriminate between different RNA sequences was evaluated by comparing the binding to the target sequence (AS-wt) and the negative control (AS-U1495A). The ratio of KD(AS-U1495A) to KD(AS-wt) was taken to be a representation of the specificity of the binding event.
(§1) For the quantitative measurement of aminoglycoside binding to these sequences, we utilized our recently developed SPR-based assay. Biotinylated derivatives of all sequences were prepared by in vitro transcription in the presence of guanosine 5'-monophosphorothioate followed by alkylation with a biotin iodoacetamide derivative. The RNA conjugates were then immobilized onto streptavidin coated SPR-sensorchips for analysis.
(§2) In the same manner as illustrated for paromomycin, a panel of aminoglycosides was screened and the results are compiled in the table of FIGS. 46 and 47. In addition to the naturally occuring aminoglycoside antibiotics, some of the compounds in FIG. 46 are synthetically derived, unnatural aminoglycosides. The number of independent determinations for each dissociation constant ranged from 1-3. […] All data were recorded under near physiological salt conditions (HBS-buffer: 150 mM NaCl, 10 mM HEPES, pH7.4, 3.4 mM EDTA) unless noted otherwise. Data points were taken at concentrations ranging from […]. Below this concentration range, surface transport limitations prevent the attainment of equilibrium.
Plasmon resonance and antimicrobial testing for Example 4. Synthesis of the biotinylated RNA and surface plasmon resonance detected binding experiments were performed as described vida supra. Solution conditions: 150 mM NaCl, 10 mM HEPES (pH 7.4), 3.4 mM EDTA. KD determination from the binding curves.
The fitting routine of the program kaleidagraph was used for all calculations. The starting values for a and b were set to 1 and 0 respectively. The number of KD values used in the fitting was adjusted depending on the observed range of equivalents bound but generally varied from 3 to 4.
General Procedures for SPR Binding Studies done in Example 5. Samples were prepared by serial dilutions from stock solutions in RNase free microfuge tubes (Ambion) and were centrifuged at 14000 rpm for degassing. Unless otherwise noted, all binding studies were carried out using HBS buffer (Pharmacia Biosensor AB) which was used as obtained. All procedures for binding studies were automated as methods using repetitive cycles of sample injection and regeneration. Typically, buffer was injected in the first two cycles to establish a stable baseline value. Samples were injected at a flowrate of […] using either the KINJECT command. All aminoglycoside samples were injected from autoclaved 7 mm plastic vials that were capped with pierceable plastic crimp caps. To minimize carry over, samples were injected in order of increasing concentration. The running buffer was identical to the injection buffer. Expected values for the equilibrium response of one equivalent of analyte were calculated from the relative molecular weight of the analyte and the immobilized RNA ligand in each flowcells and adjusted with a correction factor of 0.76 which arises from the different molar refractive indices of RNA and the analyte. […]

Neo16-bd = assay: SPR binding of aminoglycosides to Neo16-bd aptamer
Method: Conditions: 10 mM HEPES (pH 7.4), 0.1 mM EDTA and NaCl as indicated.
The binding of aminoglycosides to RNA is likely to involve substantial ionic contributions and therefore should be strongly influenced by competing buffer ions. […] We studied the salt dependence of neomycin B binding to RBE3, RBE3-neg and Neo16-bd (FIG. 14) by varying the concentration of NaCl included in the injection buffer (10 mM HEPES, pH 7.4, 0.1 mM EDTA). […] This neomycin binding motif was obtained by in vitro selection under conditions of high ionic strength.
To further improve our understanding of specific aminoglycoside recognition, we have also included an artificial aminoglycoside receptor that was evolved in vitro to recognize an aminoglycoside. A number of RNA aptamers for small molecules have been reported in recent years. Among them are aptamers that recognize the aminoglycosides tobramycin, lividomycin and kanamycin.
For comparison, the corresponding values for AS-wt are also included.
General Procedures for SPR Binding Studies done in Example 5. Samples were prepared by serial dilutions from stock solutions in RNase free microfuge tubes (Ambion) and were centrifuged at 14000 rpm for degassing. Unless otherwise noted, all binding studies were carried out using HBS buffer (Pharmacia Biosensor AB) which was used as obtained. All procedures for binding studies were automated as methods using repetitive cycles of sample injection and regeneration. Typically, buffer was injected in the first two cycles to establish a stable baseline value. Samples were injected at a flowrate of […] using either the KINJECT command. All aminoglycoside samples were injected from autoclaved 7 mm plastic vials that were capped with pierceable plastic crimp caps. To minimize carry over, samples were injected in order of increasing concentration. The running buffer was identical to the injection buffer.

AS-U1406A = assay: SPR binding of aminoglycosides to AS-U1406A; settings: Example 5, HBS-buffer
Source text: To understand the specificity of ribosomal RNA recognition by the various aminoglycosides, we decided to investigate their binding to AS-wt and compare the results to a series of control mutants which have likewise been characterized by footprinting (FIG. 44). These include the negative controls AS-U1495A, AS-DA1492 and AS-res. […] In AS-U1495A a critical hydrogen bond acceptor which interacts with N1 of the 2-deoxystreptamine ring has been removed. The mutation DA1492 destroys the bulged pocket in which paromomycin ring II (the glucose ring) is positioned. Finally, in the AS-res mutant the G1491:C1409 base pair which creates the floor of the binding pocket is disrupted by replacing it with a C1491:U1409 mismatch. Breaking up this critical base pair in the E. coli 16S ribosomal RNA causes resistance to a broad range of aminoglycosides. In contrast to these negative controls, the mutant hairpin AS-U1406A still contains all necessary elements for specific aminoglycoside recognition and binds paromomycin with wild type specificity.
as §1, §2
General Procedures for SPR Binding Studies done in Example 5. Samples were prepared by serial dilutions from stock solutions in RNase free microfuge tubes (Ambion) and were centrifuged at 14000 rpm for degassing. Unless otherwise noted, all binding studies were carried out using HBS buffer (Pharmacia Biosensor AB) which was used as obtained. All procedures for binding studies were automated as methods using repetitive cycles of sample injection and regeneration. Typically, buffer was injected in the first two cycles to establish a stable baseline value. Samples were injected at a flowrate of […] using either the KINJECT command. All aminoglycoside samples were injected from autoclaved 7 mm plastic vials that were capped with pierceable plastic crimp caps. To minimize carry over, samples were injected in order of increasing concentration. The running buffer was identical to the injection buffer. Expected values for the equilibrium response of one equivalent of analyte were calculated from the relative molecular weight of the analyte and the immobilized RNA ligand in each flowcells and adjusted with a correction factor of 0.76 which arises from the different molar refractive indices of RNA and the analyte. Binding constants were calculated by fitting the recorded binding isotherm (equivalents bound vs, concentration) to a model with n independent binding constants using the fitting program provided in the program Kaleidagraph (Macintosh).

Row | Molecule | specificity for AS-wt over negative controls (in words) (AS-wt) | binding to AS-U1406A mutant relative to AS-wt (in words) (AS-U1406A) | other results
1 | CN[C@@H]1[C@@H](O[C@H]2O[C@H](CO)[C@@H](N)[C@H](O)[C@H]2O)OC2C[C@@H](N)[C@@H](O[C@H]3[C@H](O)[C@@H](O)[C@H](N)C[C@@H]3N)OC2[C@@H]1O (some centres unmarked) [Apramycin] | only marginal if any specificity for AS-wt | – | –
2 | NC[C@H]1O[C@H](O[C@H]2[C@H](O[C@@H]3O[C@H](CO)[C@@H](O[C@H]4O[C@@H](CO)[C@@H](O)[C@H](O)[C@H]4O)[C@H]3O)[C@@H](O)[C@H](N)C[C@@H]2N)[C@H](N)[C@@H](O)[C@@H]1O [Compound 700, 2"',6"'-desamino-2"'-6"'-hydroxy neomycin B] | – | – | RNA binding, affinity or specificity for AS-wt (in words) (AS-wt; Example 4): virtually the same RNA binding profile
3 | NC[C@@H]1O[C@H](O[C@H]2[C@@H](O)[C@H](O[C@@H]3[C@@H](O)[C@H](N)C[C@H](N)[C@H]3O[C@H]3O[C@H](CN)[C@@H](O)[C@H](O)[C@H]3N)O[C@@H]2CO)[C@H](O)[C@@H](O)[C@@H]1O [Compound 800, 2"'-desamino-2"'-hydroxy neomycin B] | – | – | Kd (Neo16-bd; HBS-buffer, read-out: Kd, Neo16bd): < 10 nM; affinity improvement for AS-wt in relation to 700 (AS-wt): 40 fold
4 | CN[C@H]1C[C@@H](N)[C@H](O)[C@@H](O[C@@H]2O[C@H](CO)[C@H](O)[C@@H]3OC4(O[C@H]23)O[C@H]([C@@H](N)CO)[C@H](O)[C@H](O)[C@H]4O)[C@@H]1O (some centres unmarked) [Hygromycin B] | none | – | –
5 | NCC1OC(OC2C(N)CC(N)C(OC3OC(CO)C(O)C(N)C3O)C2O)C(O)C(O)C1O (centres unmarked) [Kanamycin A] | only very moderate specificity for AS-wt | not increased in the U1406A mutant relative to AS-wt but rather decreased | –
6 | NC[C@H]1O[C@H](O[C@H]2[C@H](O)[C@@H](O[C@H]3O[C@H](CO)[C@@H](O)[C@H](N)[C@H]3O)[C@H](N)C[C@@H]2N)[C@H](N)[C@@H](O)[C@@H]1O [Kanamycin B] | only very moderate specificity for AS-wt | not increased in the U1406A mutant relative to AS-wt but rather decreased | –
7 | N[C@H]1[C@@H](O[C@H]2[C@H](O)[C@@H](O)[C@H](N)C[C@@H]2N)O[C@H](CO)[C@@H](O)[C@@H]1O [Paromamine] | substantial decrease in binding to AS-wt and a loss of most specificity | – | –
8 | NC[C@H]1O[C@H](O[C@H]2[C@H](O[C@@H]3O[C@H](CO)[C@@H](O)[C@H]3O)[C@@H](O)[C@H](N)C[C@@H]2N)[C@H](N)[C@@H](O)[C@@H]1O [Ribostamycin] | low | only weakly enhanced | binding to Neo16bd (in words) (Neo16-bd): bound more tightly to the aptamer than paromomycin; lower affinity for AS-wt relative to neamine (AS-wt): 3 fold
9 | NC[C@H]1O[C@H](O[C@H]2[C@H](O)[C@@H](O[C@H]3O[C@H](CO)[C@@H](O)[C@H](N)[C@H]3O)[C@H](N)C[C@@H]2N)[C@H](N)C[C@@H]1O [Tobramycin] | only very moderate specificity for AS-wt | not increased in the U1406A mutant relative to AS-wt but rather decreased | –
10 | Butirosin | only moderate specificity for AS-wt | significantly enhanced | –
11 | Gentamycin | only very moderate specificity for AS-wt | not increased in the U1406A mutant relative to AS-wt but rather decreased | –
